# Assays:
# [1] = Combined toxicity of chlorpyrifos and butachlor to Japanese medaka larvae; details: in vivo
# Method: (§1) F. Combined toxicity test: The toxicity test is performed on zebrafish larvae and Japanese medaka larvae, the test procedure is as follows:
# (§2) b. Japanese medaka: A single pesticide is used to measure the LC50 value of Japanese medaka for 96 hours, mixing chlorpyrifos and butachlor to form binary mixed systems with different ratios of 1:4, 2:3, 1:1, 3:2 and 4:1, according to the pre-experiment results, 5-7 different concentrations are set at equal logarithmic intervals to determine the combined toxicity of the mixed system to Japanese medaka, the method is the same as the determination of single toxicity, the total concentration of the binary mixture is the sum of the concentrations of the two components;
# as §2, with “different concentrations with a geometrical ratio are set” for “different concentrations are set”, “to Japanese medaka the method” for “to Japanese medaka, the method”, “as the determination, of single” for “as the determination of single”
# (§3) H. Data processing: Calculating the LC50 value of pesticides on larvae and their 95% confidence limits by probit analysis based on the number and time of dead fish larvae, and using 95% confidence limit of LC50 as the criterion to determine whether the toxicity difference of different drugs is significant, LC50≤0.1 mg a.i. L^−1, is hypertoxic; 0.1<LC50≤1.0 mg a.i. L^−1, is high toxicity; 1.0<LC50≤10.0 mg a.i. L^−1, is medium toxicity; LC50>10.0 mg a.i. L^−1, is low toxicity, the maximum allowable concentration of MPC employs 100 as the protection factor, the formula is: MPC=96 h-LC50/100, to get the maximum allowable concentration of a poison.
# [2] = Single toxicity of chlorpyrifos and butachlor to zebrafish embryos; assay type: in vivo; details: in vivo, other: immersion in test solution (waterborne exposure), read-out: LC50 (95% CI)
# Method: (§4) D. Toxicity of pesticides to zebrafish embryos: On the basis of clearing the effective concentration range of pesticides in pre-tests, diluting the pesticide stock solution with standard dilution water to 5-7 concentrations with a geometrical ratio, and using a 24 well cell culture dish for exposure apparatus, the volume of each well is 3 mL, 20 wells are the same experimental concentration, and the remaining 4 wells are blank controls; during the experiment, of test solution and 1 randomly selected 3 hpf (hourpost-fertilization) normal fertilized embryo at the embryo shield stage were put into every well, set up 3 replicates at each concentration, every culture dish as a replicate, and incubating in a multifunctional incubator at 26±1° C. with a photoperiod of 14 h (light): 10 h (dark);
# (§5) Preferably, in the step D, the test solution needs to be replaced every 24 h, observing and microscopical observing the CK group and the exposed group every 24 h, recording the number of embryos with normal development and malformations, and calculating the number of embryos hatched and larvae malformations, the experiment lasts 96 hours.
# as §4, with “24-well” for “24 well”, “poisoning” for “exposure”, “experiment, 2 mL” for “experiment,”, “C. V:” for “C.”
# as §3
# as §5, with “Wherein” for “Preferably,”, “hours, for structural analysis.” for “hours.”
# [3] = test system: zebrafish embryos; experiment: as above; assay type: in vivo
# Method: as §4, §5
# as §4, with “24-well” for “24 well”, “poisoning” for “exposure”, “experiment, 2 mL” for “experiment,”, “C. V:” for “C.”
# as §3
# as §5, with “Wherein” for “Preferably,”, “hours, for structural analysis.” for “hours.”
# [4] = Single toxicity of chlorpyrifos and butachlor to Japanese medaka larvae; details: in vivo, other: immersion in test solution (waterborne exposure), read-out: LC50 (95% CI)
# Method: (§6) H. Data processing: Calculating the LC50 value of pesticides on larvae and their 95% confidence limits by probit analysis based on the number and time of dead fish larvae, and using 95% confidence limit of LC50 as the criterion to determine whether the toxicity difference of different pesticides is significant, LC50≤0.1 mg a.i. L^−1, is hypertoxic; 0.1<LC50≤1.0 mg a.i. L^−1, is high toxicity; 1.0<LC50≤[…] a.i. L^−1, is medium toxicity; LC50>10.0 mg a.i. L^−1 is low toxicity. The maximum allowable concentration of MPC employs 100 as the protection factor, the formula is: MPC=96 h-LC50/100, to get the maximum allowable concentration of a poison.
# as §3
# (§7) Wherein the larvae in the migratory period in step E refer to fish 120 h after fertilization of eggs, for improving the accuracy of the test.
# [5] = Combined toxicity of chlorpyrifos and butachlor to zebrafish larvae; details: in vivo, read-out: LC50 (95% CI) of the component in the mixture
# Method: as §1
# a. Zebrafish larvae: The LC50 value of zebrafish larvae with a single pesticide for 96 h is a toxic unit, and 5-7 different concentrations with a geometrical ratio, test method and calculation of LC50 value of each exposure time are the same as 1.4.2;
# as §3
# [6] = Single toxicity of chlorpyrifos and butachlor to zebrafish larvae; details: in vivo, other: immersion in test solution (waterborne exposure), read-out: LC50 (95% CI)
# Method: as §6, §3, §7
compound,measurement,setting,value
"CCCCOCN(C(=O)CCl)c1c(CC)cccc1CC [Butachlor, butachlor]",LC50 at 24 h,"[1]; Japanese medaka larvae, chlorpyrifos:butachlor ratio 4:1, 24 h, read-out: LC50 (95% CI) of the component in the mixture",0.2 µg/mL
same,LC50 at 96 h,"[1]; Japanese medaka larvae, chlorpyrifos:butachlor ratio 4:1, 96 h, read-out: LC50 (95% CI) of the component in the mixture",0.036 µg/mL
same,LC50 at 24 h,"[1]; other: immersion in test solution (waterborne exposure), Japanese medaka larvae, chlorpyrifos:butachlor ratio 1:1, 24 h, read-out: LC50 (95%) CI of the component in the mixture",1.53 µg/mL
same,LC50 at 48 h,"[1]; other: immersion in test solution (waterborne exposure), Japanese medaka larvae, chlorpyrifos:butachlor ratio 1:1, 48 h, read-out: LC50 (95%) CI of the component in the mixture",1.22 µg/mL
same,LC50 at 72 h,"[1]; other: immersion in test solution (waterborne exposure), Japanese medaka larvae, chlorpyrifos:butachlor ratio 1:1, 72 h, read-out: LC50 (95%) CI of the component in the mixture",0.93 µg/mL
same,LC50 at 96 h,"[1]; other: immersion in test solution (waterborne exposure), Japanese medaka larvae, chlorpyrifos:butachlor ratio 1:1, 96 h, read-out: LC50 (95%) CI of the component in the mixture",0.81 µg/mL
same,LC50 at 48 h,"[1]; other: immersion in test solution (waterborne exposure), Japanese medaka larvae, chlorpyrifos:butachlor ratio 4:1, 48 h, read-out: LC50 (95% CI) of the component in the mixture",0.15 µg/mL
same,LC50 at 72 h,"[1]; other: immersion in test solution (waterborne exposure), Japanese medaka larvae, chlorpyrifos:butachlor ratio 4:1, 72 h, read-out: LC50 (95% CI) of the component in the mixture",0.11 µg/mL
same,LC50 at 24 h,"[1]; other: immersion in test solution (waterborne exposure), chlorpyrifos:butachlor ratio 1:4, 24 h, read-out: LC50 (95% CI) of the component in the mixture",2.29 µg/mL
same,LC50 at 48 h,"[1]; other: immersion in test solution (waterborne exposure), chlorpyrifos:butachlor ratio 1:4, 48 h, read-out: LC50 (95% CI) of the component in the mixture",1.3 µg/mL
same,LC50 at 72 h,"[1]; other: immersion in test solution (waterborne exposure), chlorpyrifos:butachlor ratio 1:4, 72 h, read-out: LC50 (95% CI) of the component in the mixture",1.14 µg/mL
same,LC50 at 96 h,"[1]; other: immersion in test solution (waterborne exposure), chlorpyrifos:butachlor ratio 1:4, 96 h, read-out: LC50 (95% CI) of the component in the mixture",0.88 µg/mL
same,LC50 at 24 h,"[1]; other: immersion in test solution (waterborne exposure), chlorpyrifos:butachlor ratio 2:3, 24 h, read-out: LC50 (95% CI) of the component in the mixture",2.29 µg/mL
same,LC50 at 48 h,"[1]; other: immersion in test solution (waterborne exposure), chlorpyrifos:butachlor ratio 2:3, 48 h, read-out: LC50 (95% CI) of the component in the mixture",0.66 µg/mL
same,LC50 at 72 h,"[1]; other: immersion in test solution (waterborne exposure), chlorpyrifos:butachlor ratio 2:3, 72 h, read-out: LC50 (95% CI) of the component in the mixture",0.43 µg/mL
same,LC50 at 96 h,"[1]; other: immersion in test solution (waterborne exposure), chlorpyrifos:butachlor ratio 2:3, 96 h, read-out: LC50 (95% CI) of the component in the mixture",0.35 µg/mL
same,LC50 at 24 h,"[1]; other: immersion in test solution (waterborne exposure), chlorpyrifos:butachlor ratio 3:2, 24 h, read-out: LC50 (95% CI) of the component in the mixture",1.48 µg/mL
same,LC50 at 48 h,"[1]; other: immersion in test solution (waterborne exposure), chlorpyrifos:butachlor ratio 3:2, 48 h, read-out: LC50 (95% CI) of the component in the mixture",1.29 µg/mL
same,LC50 at 72 h,"[1]; other: immersion in test solution (waterborne exposure), chlorpyrifos:butachlor ratio 3:2, 72 h, read-out: LC50 (95% CI) of the component in the mixture",0.87 µg/mL
same,LC50 at 96 h,"[1]; other: immersion in test solution (waterborne exposure), chlorpyrifos:butachlor ratio 3:2, 96 h, read-out: LC50 (95% CI) of the component in the mixture",0.66 µg/mL
same,LC50 at 24 h,[2]; exposure time 24 h,32.8 µg/mL
same,LC50 at 48 h,[2]; exposure time 48 h,5.82 µg/mL
same,LC50 at 72 h,[2]; exposure time 72 h,4.42 µg/mL
same,LC50 at 96 h,[2]; exposure time 96 h,1.93 µg/mL
same,effects of exposure on zebrafish embryo development,[3],"egg coagulation, pericardial edema, yolk sac edema, and spinal curvature"
same,times more toxic to zebrafish embryos than chlorpyrifos,[3]; 96 h,6.75 times
same,LC50 at 24 h,[4]; exposure time 24 h,0.85 µg/mL
same,LC50 at 48 h,[4]; exposure time 48 h,0.72 µg/mL
same,LC50 at 72 h,[4]; exposure time 72 h,0.54 µg/mL
same,LC50 at 96 h,[4]; exposure time 96 h,0.43 µg/mL
same,LC50 at 24 h,[5]; equitoxic ratio,0.91 µg/mL
same,LC50 at 48 h,[5]; equitoxic ratio,0.72 µg/mL
same,LC50 at 72 h,[5]; equitoxic ratio,0.45 µg/mL
same,LC50 at 96 h,[5]; equitoxic ratio,0.26 µg/mL
same,LC50 at 24 h,[5]; equivalent concentration (1:1),0.18 µg/mL
same,LC50 at 48 h,[5]; equivalent concentration (1:1),0.16 µg/mL
same,LC50 at 72 h,[5]; equivalent concentration (1:1),0.14 µg/mL
same,LC50 at 96 h,[5]; equivalent concentration (1:1),0.11 µg/mL
same,LC50 at 24 h,[6]; exposure time 24 h,0.67 µg/mL
same,LC50 at 48 h,[6]; exposure time 48 h,0.59 µg/mL
same,LC50 at 72 h,[6]; exposure time 72 h,0.51 µg/mL
same,LC50 at 96 h,[6]; exposure time 96 h,0.44 µg/mL

# Reference: patent US20200284781A1, “TEST METHOD OF COMBINED TOXICITY FOR CH[…] BUTACHLOR” (priority 2019, published 2020)
